Reference: US9951043B2, “Therapeutic compounds” (Gilead Sciences, Inc., priority 2013, dated 2018)
Like-named read-outs stand apart in the source and are kept apart here.

Legend:
HIV-IIIb = assay: Test A: Antiviral Assay in MT4 Cells; format: cell-based, HIV-1; conditions: for inhibition at 0.2 µM / inhibition at 2 µM: Human immunodeficiency virus 1, IIIB, comparison with previously published compounds (WO 2013/006738); for inhibition at 0.2 µM: MT4, read-out: Response at 0.2 μM (percent inhibition of virus-induced cell killing), 0.2 μM; for inhibition at 2 µM: MT4, read-out: Response at 2 μM (percent inhibition of virus-induced cell killing), 2 μM; for % inhibition at 0.2 μM (percent inhibition of virus-induced cell killing): 0.2 μM drug concentration; for % inhibition at 0.2 μM (percent inhibition of virus-induced cell killing) / % inhibition at 2 μM (percent inhibition of virus-induced cell killing): MT-4 cells infected with HIV-IIIb, 5 days, calculated from the dose response curve, values above 100 normalized to 100%; for % inhibition at 2 μM (percent inhibition of virus-induced cell killing): 2 μM drug concentration
Protocol: Test A: Antiviral Assay in MT4 Cells
(§1) MT-4 cells were next mixed with HIV-IIIb at an m.o.i of 0.003 for 1 hour, after which time 35 μL of virus/cell mixture (2000 cells) was immediately added to each well containing 40 μL of diluted compound. The plates were then incubated at 37° C. for 5 days. […] Cell lysis was carried out by incubating at room temperature for 10 min and then chemiluminescence was read.
The data above represent an average over time of each assay for each compound. […] Thus, the data reported in the tables include the data reported in the priority document, as well as data from assays run in the intervening period.

uninfected MT-4 cells = assay: Test B: Cytotoxicity Assay; format: cell-based
Protocol: as §1
Test B: Cytotoxicity Assay
Compound cytotoxicity and the corresponding CC50 values was determined using the same protocol as described in the antiviral assay (Test A) except that uninfected cells were used.

[1] = uninfected MT-4 cells, same protocol as Test A, 5 days, read-out: CC50

Row | Molecule | inhibition at 0.2 µM (HIV-IIIb) [%] | inhibition at 2 µM (HIV-IIIb) [%] | CC50 (uninfected MT-4 cells) [µM] | CC50 (uninfected MT-4 cells; [1]) [µM] | % inhibition at 0.2 μM (percent inhibition of virus-induced cell killing) (HIV-IIIb) [%] | % inhibition at 2 μM (percent inhibition of virus-induced cell killing) (HIV-IIIb) [%]
1 | CC(C)(O)C#Cc1ccc(-c2ccc(F)c(C(N)=O)c2)c([C@H](Cc2cc(F)cc(F)c2)NC(=O)Cn2nc(C(F)F)c3c2C(F)(F)CCC3(F)F)n1 | 71 | 84 | – | – | – | –
2 | Cn1nc(NS(=O)(=O)C(F)(F)F)c2c(Cl)ccc(-c3ccc(C#CC(C)(C)O)nc3[C@H](Cc3cc(F)cc(F)c3)NC(=O)Cn3nc(C(F)F)c4c3C(F)(F)[C@@H]3C[C@H]43)c21 [Compound 171D] | – | – | > 42.5 | – | – | –
3 | Cn1nc(NS(C)(=O)=O)c2c(Cl)ccc(-c3ccc(C#CC(C)(C)O)nc3[C@H](Cc3cc(F)cc(F)c3)NC(=O)Cn3nc(Cl)c4c3C(F)(F)[C@@H]3C[C@H]43)c21 [Compound 149, N—((S)-1-(3-(4-chloro-1-methyl-3-(methylsulfonamido)-1H-indazol-7-yl)-6-(3-hydroxy-3-methylbut-1-yn-1-yl)pyridin-2-yl)-2-(3,5-difluorophenyl)ethyl)-2-((3bS,4aR)-3-chloro-5,5-difluoro-3b,4,4a,5-tetrahydro-1H-cyclopropa[3,4]cyclopenta[1,2-c]pyrazol-1-yl)acetamide] | – | – | – | 26.7 | – | –
4 | Cn1nc(N)c2c(Cl)ccc(-c3ccc(C#CC(C)(C)O)nc3[C@H](Cc3cc(F)cc(F)c3)NC(=O)Cn3nc(C(F)(F)F)c4c3C(F)(F)[C@@H]3C[C@H]43)c21 [Compound 55C] | – | – | 9.56 | – | 92 | 92
5 | N—((S)-1-(3-(3-chloro-1H-benzofuro[3,2-c]pyrazol-5-yl)-6-(3-hydroxy-3-methylbut-1-yn-1-yl)pyridin-2-yl)-2-(3,5-difluorophenyl)-2-((3bS,4aR)-5,5-difluoro-3-(trifluoromethyl)-3b,4,4a,5-tetrahydro-1H-cyclopropa[3,4]cyclopenta[1,2-c]pyrazol-1-yl)acetamide [Compound 113D] | – | – | 1.09 | – | – | 97
6 | CC(C)(O)C#Cc1ccc(-c2cccc3c2CNC3=O)c([C@H](Cc2cc(F)cc(F)c2)NC(=O)Cn2nc(C(F)(F)F)c3c2C(F)(F)[C@@H]2C[C@H]32)n1 [Compound 15, 2-((3bS,4aR)-5,5-difluoro-3-(trifluoromethyl)-3b,4,4a,5-tetrahydro-1H-cyclopropa[3,4]cyclopenta[1,2-c]pyrazol-1-yl)-N—((S)-2-(3,5-difluorophenyl)-1-(6-(3-hydroxy-3-methylbut-1-yn-1-yl)-3-(1-oxoisoindolin-4-yl)pyridin-2-yl)ethyl)acetamide] | – | – | – | 10.3 | 93 | 94
7 | Cn1nc(NS(C)(=O)=O)c2c(Cl)ccc(-c3ccc(C#CC(C)(C)O)nc3[C@H](Cc3cc(F)cc(F)c3)NC(=O)Cn3ncc4c3C(F)(F)[C@@H]3C[C@H]43)c21 [Compound 150, N—((S)-1-(3-(4-chloro-1-methyl-3-(methylsulfonamido)-1H-indazol-7-yl)-6-(3-hydroxy-3-methylbut-1-yn-1-yl)pyridin-2-yl)-2-(3,5-difluorophenyl)ethyl)-2-((3bS,4aR)-5,5-difluoro-3b,4,4a,5-tetrahydro-1H-cyclopropa[3,4]cyclopenta[1,2-c]pyrazol-1-yl)acetamide] | – | – | – | 28.9 | – | –
8 | C#Cc1ccc(-c2ccc(Cl)c3cnn(C)c23)c([C@H](Cc2cc(F)cc(F)c2)NC(=O)Cn2nc(C(F)F)c3c2C(F)(F)[C@@H]2C[C@H]32)n1 [Compound 136D, N—((S)-1-(3-(4-chloro-1-methyl-1H-indazol-7-yl)-6-ethynylpyridin-2-yl)-2-(3,5-difluorophenyl)ethyl)-2-((3bS,4aR)-3-(difluoromethyl)-55-difluoro-3b,4,4a,5-tetrahydro-1H-cyclopropa[3,4]cyclopenta[1,2-c]pyrazol-1-yl)acetamide] | – | – | 7.43 | – | – | –
9 | CC(C)(O)C#Cc1ccc(-c2ccc3nnc(N)n3c2)c([C@H](Cc2cc(F)cc(F)c2)NC(=O)Cn2nc(C(F)F)c3c2C(F)(F)[C@@H]2C[C@H]32)n1 [Compound 105E] | – | – | 31.5 | – | – | 74
10 | Cn1nc(N)c2c(C#N)ccc(-c3ccc(C#CC(C)(C)O)nc3[C@H](Cc3cc(F)cc(F)c3)NC(=O)Cn3nc(C(F)F)c4c3C(F)(F)[C@@H]3C[C@H]43)c21 [Compound 77E] | – | – | 11.8 | – | 96 | 97
11 | Cn1nc(NS(C)(=O)=O)c2c(Cl)ccc(-c3ccc(C#CC(C)(C)N)nc3[C@H](Cc3cc(F)cc(F)c3)NC(=O)Cn3nc(C(F)F)c4c3C(F)(F)[C@@H]3C[C@H]43)c21 [Compound 128B, N—((S)-1-(6-(3-amino-3-methylbut-1-yn-1-yl)-3-(4-chloro-1-methyl-3-(methylsulfonamido)-1H-indazol-7-yl)pyridin-2-yl)-2-(3,5-difluorophenyl)ethyl)-2-((3bS,4aR)-3-(difluoromethyl)-5,5-difluoro-3b,4,4a,5-tetrahydro-1H-cyclopropa[3,4]cyclopenta[1,2-c]pyrazol-1-yl)acetamide] | – | – | – | 4.18 | 93 | 94
12 | Cn1nc(NS(C)(=O)=O)c2c(Cl)ccc(-c3ccc(C#CC(C)(C)O)nc3[C@H](Cc3cccc(F)c3)NC(=O)Cn3nc(C(F)(F)F)c4c3C(F)(F)[C@@H]3C[C@H]43)c21 [Compound 187G, N—((S)-1-(3-(4-chloro-1-methyl-3-(methylsulfonamido)-1H-indazol-7-yl)-6-(3-hydroxy-3-methylbut-1-yn-1-yl)pyridin-2-yl)-2-(3-fluorophenyl)ethyl)-2-((3b,4aR)-5,5-difluoro-3-(trifluoromethyl)-3b,4,4a,5-tetrahydro-1H-cyclopropa[3,4]cyclopenta[1,2-c]pyrazol-1-yl)acetamide] | – | – | 19.8 | – | 84 | 84
13 | COc1ccc(-c2ccc(C#CC(C)(C)O)nc2[C@H](Cc2cc(F)cc(F)c2)NC(=O)Cn2nc(C(F)F)c3c2C(F)(F)[C@@H]2C[C@H]32)c2c1c(N)nn2C [Compound 114G] | – | – | 14.8 | – | 100 | 100
14 | Cn1nc(NS(C)(=O)=O)c2c(Cl)ccc(-c3ccc(C#CC(C)(C)O)nc3[C@H](Cc3cc(F)cc(F)c3)NC(=O)Cn3nc(N)c4c3C(F)(F)[C@@H]3C[C@H]43)c21 [Compound 148B, 2-((3bS,4aR)-3-amino-5,5-difluoro-3b,4,4a,5-tetrahydro-H-cyclopropa[3,4]cyclopenta[1,2-c]pyrazol-1-yl)-N—((S)-1-(3-(4-chloro-1-methyl-3-(methylsulfonamido)-1H-indazol-7-yl)-6-(3-hydroxy-3-methylbut-1-yn-1-yl)pyridin-2-yl)-2-(3,5-difluorophenyl)ethyl)acetamide] | – | – | 23.3 | – | 83 | 83
15 | NC(=O)c1cc(-c2ccc(-c3ccc(F)c(C(N)=O)c3)c([C@H](Cc3cc(F)cc(F)c3)NC(=O)Cn3nc(C(F)F)c4c3C(F)(F)CCC4(F)F)n2)ccc1F | 3 | 58 | – | – | – | –
16 | CC(C)(O)C#Cc1ccc(-c2ccc(Cl)n3c(N)nnc23)c([C@H](Cc2cc(F)cc(F)c2)NC(=O)Cn2nc(C(F)F)c3c2C(F)(F)[C@@H]2C[C@H]32)n1 [Compound 106E] | – | – | 12.4 | – | 95 | 96
17 | Cc1nc(NS(C)(=O)=O)c2cccc(-c3ccc(C#CC(C)(C)O)nc3[C@H](Cc3cc(F)cc(F)c3)NC(=O)Cn3nc(C(F)F)c4c3C(F)(F)[C@@H]3C[C@H]43)n12 [Compound 120H, 2-((3bS,4aR)-3-(difluoromethyl)-5,5-difluoro-3b,4,4a,5-tetrahydro-1H-cyclopropa[3,4]cyclopenta[1,2-c]pyrazol-1-yl)-N—((S)-2-(3,5-difluorophenyl)-1-(6-(3-hydroxy-3-methylbut-1-yn-1-yl)-3-(3-methyl-1-(methylsulfonamido)imidazo[1,5-a]pyridin-5-yl)pyridin-2-yl)ethyl)acetamide] | – | – | – | 11.7 | – | –
18 | Cn1nc(NS(C)(=O)=O)c2c(Cl)ccc(-c3ccc(C#CC(C)(C)N)nc3[C@H](Cc3cc(F)cc(F)c3)NC(=O)Cn3nc(C(F)F)c4c3C(F)(F)[C@@H]3C[C@H]43)c21 [Compound 127, N—((S)-1-(6-(3-amino-3-methylbut-1-yn-1-yl)-3-(4-chloro-1-methyl-3-(methylsulfonamido)-1H-indazol-7-yl)pyridin-2-yl)-2-(3,5-difluorophenyl)ethyl)-2-((3bS,4aR)-3-(difluoromethyl)-5,5-difluoro-3b,4,4a,5-tetrahydro-1H-cyclopropa[3,4]cyclopenta[1,2-c]pyrazol-1-yl)acetamide] | – | – | – | 8.76 | – | –
19 | CC(C)(O)C#Cc1ccc(-c2ccc(F)c(C(N)=O)c2)c([C@H](Cc2cc(F)cc(F)c2)NC(=O)Cn2nc(C(F)(F)F)c3c2C(F)(F)[C@@H]2C[C@H]32)n1 | 96 | 90 | – | – | – | –
